Reference: ChEMBL document CHEMBL5053549, “Discovery of Potent and Novel Dual PARP/BRD4 Inhibitors for Efficient Treatment of Pancreatic Cancer” (J Med Chem, 2021)
Calls of active or inactive are those of the source. The rule behind the calls is not given here.

Experiments:
Mus musculus [1] = test: Inhibition of homologous recombinant repair in human SW1990 cells xenografted in BALB/c mouse assessed as increase in gammaH2AX expression at 45 mg/kg, ip after 4 days by immunohistochemical analysis; type: functional, organism-based; settings: time 4.0 day
[2] = biological target: Serine/threonine-protein kinase PLK1 (Homo sapiens, UniProt P53350); test: Inhibition of recombinant PLK1 (unknown origin) […] measured after 40 mins by ADP-glo luminescence kinase assay
Sequence of Serine/threonine-protein kinase PLK1 (P53350 whole entry): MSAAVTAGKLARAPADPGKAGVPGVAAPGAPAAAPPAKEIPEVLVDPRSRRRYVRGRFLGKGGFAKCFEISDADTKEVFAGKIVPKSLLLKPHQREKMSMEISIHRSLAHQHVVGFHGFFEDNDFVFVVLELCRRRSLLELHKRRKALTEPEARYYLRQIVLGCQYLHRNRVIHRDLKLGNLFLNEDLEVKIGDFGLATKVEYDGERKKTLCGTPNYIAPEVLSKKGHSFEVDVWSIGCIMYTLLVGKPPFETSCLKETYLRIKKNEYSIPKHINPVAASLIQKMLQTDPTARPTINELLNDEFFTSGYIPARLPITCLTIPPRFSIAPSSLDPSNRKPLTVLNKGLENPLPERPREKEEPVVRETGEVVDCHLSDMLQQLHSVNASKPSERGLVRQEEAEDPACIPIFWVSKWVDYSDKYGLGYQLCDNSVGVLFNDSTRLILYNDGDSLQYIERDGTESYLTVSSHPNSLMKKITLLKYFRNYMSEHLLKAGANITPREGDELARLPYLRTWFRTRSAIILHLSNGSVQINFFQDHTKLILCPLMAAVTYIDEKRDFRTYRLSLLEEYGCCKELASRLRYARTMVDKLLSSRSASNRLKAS

[3] = biological target: T1, Bromodomain-containing protein 2 (Homo sapiens, UniProt P25440); test: Inhibition of recombinant BRD2 BD1 (unknown origin) incubated for 120 mins by TR-FRET assay
T1 sequence (P25440 whole entry): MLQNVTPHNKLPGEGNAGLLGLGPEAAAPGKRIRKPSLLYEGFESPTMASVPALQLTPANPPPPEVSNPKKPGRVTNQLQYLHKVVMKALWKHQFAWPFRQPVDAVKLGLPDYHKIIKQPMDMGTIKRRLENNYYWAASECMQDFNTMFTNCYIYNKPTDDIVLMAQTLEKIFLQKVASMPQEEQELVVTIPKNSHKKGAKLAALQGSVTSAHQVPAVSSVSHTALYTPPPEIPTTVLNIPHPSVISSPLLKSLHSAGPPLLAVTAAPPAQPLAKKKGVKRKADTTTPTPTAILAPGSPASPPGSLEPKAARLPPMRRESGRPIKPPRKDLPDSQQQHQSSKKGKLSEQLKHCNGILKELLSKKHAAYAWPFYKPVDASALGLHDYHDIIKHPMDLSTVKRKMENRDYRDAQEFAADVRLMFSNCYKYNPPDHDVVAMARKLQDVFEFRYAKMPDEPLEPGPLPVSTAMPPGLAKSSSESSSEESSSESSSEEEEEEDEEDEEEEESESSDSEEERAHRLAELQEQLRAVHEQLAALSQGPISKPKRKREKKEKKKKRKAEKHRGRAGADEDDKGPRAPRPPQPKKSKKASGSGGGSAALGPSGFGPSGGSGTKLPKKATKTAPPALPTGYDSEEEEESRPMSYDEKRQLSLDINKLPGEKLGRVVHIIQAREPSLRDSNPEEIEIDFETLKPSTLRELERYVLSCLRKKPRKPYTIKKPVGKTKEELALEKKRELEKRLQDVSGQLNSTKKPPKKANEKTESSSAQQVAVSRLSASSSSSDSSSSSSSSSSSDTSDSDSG

[4] = biological target: T1, Bromodomain-containing protein 2; test: Inhibition of recombinant BRD2 BD2 (unknown origin) incubated for 120 mins by TR-FRET assay
[5] = biological target: Bromodomain-containing protein 3 (Homo sapiens, UniProt Q15059); test: Inhibition of recombinant BRD3 BD1 (unknown origin) incubated for 120 mins by TR-FRET assay
Sequence of Bromodomain-containing protein 3 (Q15059 whole entry): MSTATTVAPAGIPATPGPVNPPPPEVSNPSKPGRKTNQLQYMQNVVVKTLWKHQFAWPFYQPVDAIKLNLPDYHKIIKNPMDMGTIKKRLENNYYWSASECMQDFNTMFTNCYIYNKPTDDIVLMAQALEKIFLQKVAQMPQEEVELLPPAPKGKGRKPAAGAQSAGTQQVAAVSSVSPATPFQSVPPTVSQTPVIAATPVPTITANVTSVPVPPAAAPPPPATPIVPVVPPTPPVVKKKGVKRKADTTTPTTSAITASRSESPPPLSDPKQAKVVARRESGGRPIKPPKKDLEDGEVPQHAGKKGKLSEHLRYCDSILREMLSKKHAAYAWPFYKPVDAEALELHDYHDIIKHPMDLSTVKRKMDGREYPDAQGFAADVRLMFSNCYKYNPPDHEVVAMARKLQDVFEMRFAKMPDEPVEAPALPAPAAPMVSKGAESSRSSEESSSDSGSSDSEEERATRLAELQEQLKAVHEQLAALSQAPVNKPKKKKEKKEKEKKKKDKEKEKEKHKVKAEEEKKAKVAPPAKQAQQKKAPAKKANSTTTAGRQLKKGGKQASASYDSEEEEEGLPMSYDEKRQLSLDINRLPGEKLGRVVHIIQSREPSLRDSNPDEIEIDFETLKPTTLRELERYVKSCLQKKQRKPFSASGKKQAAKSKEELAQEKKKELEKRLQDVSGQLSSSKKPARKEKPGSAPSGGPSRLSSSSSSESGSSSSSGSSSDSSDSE

[6] = biological target: Poly [ADP-ribose] polymerase 1 (Homo sapiens, UniProt P09874); test: Inhibition of PARP1 expression in human SW1990 cells at 1 uM after 4 days by Western blot analysis; type: cell-based; settings: time 4.0 day
Sequence of Poly [ADP-ribose] polymerase 1 (P09874 whole entry): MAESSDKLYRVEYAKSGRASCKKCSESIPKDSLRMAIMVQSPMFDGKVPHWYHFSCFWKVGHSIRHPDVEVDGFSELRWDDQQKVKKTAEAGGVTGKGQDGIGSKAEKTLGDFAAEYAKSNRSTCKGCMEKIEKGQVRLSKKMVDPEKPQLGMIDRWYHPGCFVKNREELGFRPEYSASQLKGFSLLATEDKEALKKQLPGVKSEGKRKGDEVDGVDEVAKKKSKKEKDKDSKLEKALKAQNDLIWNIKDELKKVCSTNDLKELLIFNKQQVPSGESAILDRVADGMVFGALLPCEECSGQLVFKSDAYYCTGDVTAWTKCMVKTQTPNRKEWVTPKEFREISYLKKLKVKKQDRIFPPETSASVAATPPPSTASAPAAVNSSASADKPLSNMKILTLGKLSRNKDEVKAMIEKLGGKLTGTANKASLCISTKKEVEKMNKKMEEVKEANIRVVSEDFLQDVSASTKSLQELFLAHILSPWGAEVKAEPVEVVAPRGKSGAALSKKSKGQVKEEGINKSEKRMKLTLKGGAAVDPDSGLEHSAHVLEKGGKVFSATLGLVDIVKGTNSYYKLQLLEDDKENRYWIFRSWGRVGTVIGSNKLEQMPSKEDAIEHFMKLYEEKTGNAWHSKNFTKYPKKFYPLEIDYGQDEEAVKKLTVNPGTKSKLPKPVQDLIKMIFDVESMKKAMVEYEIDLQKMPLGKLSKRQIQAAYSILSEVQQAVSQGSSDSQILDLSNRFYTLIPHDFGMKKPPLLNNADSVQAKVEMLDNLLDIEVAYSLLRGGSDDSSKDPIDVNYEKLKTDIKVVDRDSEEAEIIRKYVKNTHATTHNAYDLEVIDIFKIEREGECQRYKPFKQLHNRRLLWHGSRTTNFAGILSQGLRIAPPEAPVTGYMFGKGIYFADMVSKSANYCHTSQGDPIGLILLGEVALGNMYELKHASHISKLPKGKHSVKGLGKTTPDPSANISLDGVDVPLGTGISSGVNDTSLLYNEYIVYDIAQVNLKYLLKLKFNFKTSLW

[7] = biological target: Bromodomain-containing protein 4 (Homo sapiens, UniProt O60885); test: Inhibition of BRD4 expression in human SW1990 cells at 1 uM after 4 days by Q-PCR analysis; type: cell-based; settings: time 4.0 day
SW1990 [8] = test: Antitumor activity against human SW1990 cells xenografted in BALB/c mouse assessed as inhibition of tumor growth at 45 mg/kg, ip administered for 28 consecutive days and measured every 3 days by vernier caliper method; type: functional, organism-based; settings: time 28.0 day
Mus musculus [9] = test: Toxicity in BALB/c mouse xenografted with human SW1990 cells assessed as liver damage at 45 mg/kg, ip administered for 28 consecutive days by H and E staining based […] microscopic analysis; type: organism-based; settings: in vivo, 672 h, time 28 day
Mus musculus [10] = test: Toxicity in BALB/c mouse xenografted with human SW1990 cells assessed as heart damage at 45 mg/kg, ip administered for 28 consecutive days by H and E staining based […] microscopic analysis; type: organism-based; settings: in vivo, 672 h, time 28 day
Mus musculus [11] = test: In vivo inhibition of PARP1 expression in human […] cells xenografted in BALB/c mouse at 45 mg/kg, ip administered for 28 consecutive days by immunohistochemical analysis; type: functional, organism-based; settings: time 28.0 day
Mus musculus [12] = test: In vivo inhibition of BRD4 expression in human […] cells xenografted in BALB/c mouse at 45 mg/kg, ip administered for 28 consecutive days by immunohistochemical analysis; type: functional, organism-based; settings: time 28.0 day
Mus musculus [13] = test: In vivo inhibition of BRD4 expression in human […] cells xenografted in BALB/c mouse at 45 mg/kg, ip administered for 28 consecutive days by Q-PCR analysis; type: functional, organism-based; settings: time 28.0 day
Mus musculus [14] = test: In vivo inhibition of PARP1 expression in human […] cells xenografted in BALB/c mouse at 45 mg/kg, ip administered for 28 consecutive days by Western blot analysis; type: functional, organism-based; settings: time 28.0 day
Mus musculus [15] = test: In vivo inhibition of BRD4 expression in human […] cells xenografted in BALB/c mouse at 45 mg/kg, ip administered for 28 consecutive days by Western blot analysis; type: functional, organism-based; settings: time 28.0 day
SW1990 [16] = test: Induction of cell cycle arrest in human SW1990 cells assessed as accumulation of cells at G0/G1 phase at 2 uM incubated for 4 days by propidium iodide staining based flow cytometry (reference value: 64.79%); type: functional; settings: time 4 day
SW1990 [17] = test: Induction of cell cycle arrest in human SW1990 cells assessed as accumulation of cells at S phase at 2 uM incubated for 4 days by propidium iodide staining based flow cytometry (reference value: 29.32%); type: functional; settings: time 4 day
SW1990 [18] = test: Effect on cell cycle progression in human SW1990 cells assessed as reduction in CCND1 expression at 1 to 2 uM after 4 days by Western blot analysis; type: functional, cell-based; settings: dose 1-2 µM, time 4.0 day
Mus musculus [19] = test: Effect on cell cycle progression in human SW1990 cells xenografted in BALB/c mouse assessed as reduction in E2F2 expression at 45 mg/kg, ip after 4 days by Q-PCR analysis; type: functional, organism-based; settings: time 4.0 day
SW1990 [20] = test: Inhibition of homologous recombinant repair in human SW1990 cells assessed as reduction in FOXM1 expression at 1 to 2 uM after 4 days by Western blot analysis; type: functional, cell-based; settings: dose 1-2 µM, time 4.0 day
SW1990 [21] = test: Inhibition of homologous recombinant repair in human SW1990 cells assessed as reduction in c-Myc expression at 1 to 2 uM after 4 days by Western blot analysis; type: functional, cell-based; settings: dose 1-2 µM, time 4.0 day
SW1990 [22] = test: Induction of autophagy in human SW1990 cells xenografted in BALB/c mouse assessed as increase in LC3B expression at 45 mg/kg, ip after 4 days by Q-PCR analysis; type: functional, organism-based; settings: time 4.0 day
SW1990 [23] = test: Induction of autophagy in human SW1990 cells xenografted in BALB/c mouse assessed as increase in LC3B expression at 45 mg/kg, ip after 4 days by Western blot analysis; type: functional, organism-based; settings: time 4.0 day
Mus musculus [24] = test: Toxicity in BALB/c mouse xenografted with human SW1990 cells assessed as heart damage at 15 mg/kg, ip administered for 28 consecutive days by H and E staining based […] microscopic analysis; type: organism-based; settings: in vivo, 672 h, time 28 day
Mus musculus [25] = test: In vivo inhibition of BRD4 expression in human SW1900 cells xenografted in BALB/c mouse assessed as reversal of Olaparib-induced BRD4 accumulation at 15 mg/kg, ip administered for 28 consecutive days in presence of 45 mg/kg Olaparib by immunohistochemical analysis; type: functional, organism-based; settings: time 28.0 day
SW1990 [26] = test: Induction of apoptosis in human SW1990 cells assessed as late apoptotic cells at 4 uM after 4 days by Annexin V-FITC and propidium iodide staining based flow cytometry (reference value: 6.22%); type: functional; settings: time 4 day
SW1990 [27] = test: Induction of apoptosis in human SW1990 cells assessed as necrotic cells at 1 uM after 4 days in presence of 3 uM Olaparib by Annexin V-FITC and propidium iodide staining based flow cytometry (reference value: 1.89%); type: functional; settings: time 4 day
SW1990 [28] = test: Induction of DNA damage in human SW1990 cells assessed as increase in gammaH2AX at 1 uM incubated for 4 days in presence of Olaparib by immunofluorescence assay; type: functional, cell-based; settings: time 4.0 day
SW1990 [29] = test: Inhibition of homologous recombinant repair in human SW1990 cells assessed as reduction in Olaparib-induced FOXM1 expression at 1 uM after 4 days in presence of Olaparib by Q-PCR analysis; type: functional, cell-based; settings: time 4.0 day
SW1990 [30] = test: Inhibition of homologous recombinant repair in human SW1990 cells assessed as reduction in Olaparib-induced FOXM1 expression at 1 uM after 4 days in presence of Olaparib by Western blot analysis; type: functional, cell-based; settings: time 4.0 day
SW1990 [31] = test: Inhibition of homologous recombinant repair in human SW1990 cells assessed as reduction in Olaparib-induced BRCA1 expression at 1 uM after 4 days in presence of Olaparib by Western blot analysis; type: functional, cell-based; settings: time 4.0 day
SW1990 [32] = test: Inhibition of homologous recombinant repair in human SW1990 cells assessed as increase in […] expression at 4 uM after 4 days by Q-PCR analysis; type: functional, cell-based; settings: time 4.0 day
SW1990 [33] = test: Inhibition of homologous recombinant repair in human SW1990 cells assessed as reduction in c-Myc expression at 4 uM after 4 days by Q-PCR analysis; type: functional, cell-based; settings: time 4.0 day

In the case of `CC[C@@H]1C(=O)N(C)c2cnc(N(C)c3ccc(-c4nc5c(C(N)=O)cccc5[nH]4)cc3OC)nc2N1C1CCCC1`, the inhibition (Mus musculus [1]) is reported as “Active”, the IC50 [2] is reported as 2.03 µM and the IC50 [3] is reported as 0.381 µM. For the same compound, the IC50 [4] was 0.168 µM, the IC50 [5] was 0.166 µM and the inhibition [6] was “Active”. The inhibition [7] was “Active”, the Activity (SW1990 [8]) was “Active” and the Activity (Mus musculus [9]) was “Non-Toxic”. For the same compound, the Activity (Mus musculus [10]) was “Non-Toxic”, the Activity (Mus musculus [11]) was “Active” and the Activity (Mus musculus [12]) was “Active”. For the same compound, the Activity (Mus musculus [13]) was “Active”, the Activity (Mus musculus [14]) was “Active” and the Activity (Mus musculus [15]) was “Active”. For the same compound, the Activity (SW1990 [16]) was 77.56%, the Activity (SW1990 [17]) was 9.21% and the Activity (SW1990 [18]) was “Active”. The Activity (Mus musculus [19]) was “Active”, the inhibition (SW1990 [20]) was “Active” and the inhibition (SW1990 [21]) was “Active”. The Activity (SW1990 [22]) was “Active” and the Activity (SW1990 [23]) was “Active”.

For `Cc1sc2c(c1C)C(c1ccc(Cl)cc1)=N[C@@H](CC(=O)OC(C)(C)C)c1nnc(C)n1-2`, the Activity (Mus musculus [24]) was “Non-Toxic”, the Activity (Mus musculus [25]) was “Active” and the Activity (SW1990 [26]) was 25.5%. The Activity (SW1990 [27]) was 5.53%, the Activity (SW1990 [28]) was “Active” and the inhibition (SW1990 [29]) was “Active”. For the same compound, the inhibition (SW1990 [30]) was “Active”, the inhibition (SW1990 [31]) was “Active” and the inhibition (SW1990 [32]) was “Active”. The inhibition (SW1990 [33]) was “Active”.
